Test results reported in article PMC4920072, “Peptide:glycosaminoglycan hybrid hydrogels as an injectable intervention for spinal disc degeneration” (Journal of Materials Chemistry. B, Materials for Biology …, 2016).

Assays:
Assay type in all cases: physicochemical
[1] = Transmission electron microscopy of peptide and peptide:GAG aggregates; settings: TEM, uranyl acetate negative stain; for Twist pitch: peptide alone, 130 mM NaCl in D2O
Text: We observe that incorporation of GAGs into peptide hydrogels also modifies their microscopic properties. Transmission electron microscopy images reveal pronounced differences in the fibril morphologies (Fig. 3a and Fig. S2, S3, ESI ^‡). Broadly speaking, the changes in gel structure between peptide-only and peptide:GAG gels are very similar. In peptide-only gels, the fibril widths are of the order of 10 nm. This compares to peptide:GAG gels where the fibrils align and cluster together with bundle diameters of the order of 100 nm. […] Transmission electron microscopy of uranyl acetate stained samples were carried out on a Philips CM10/Jeol JEM1400 electron microscope operating at 80/120 kV. Fourier transform infra-red spectra were acquired with a Thermo Scientific Nicolet 6700 FTIR spectrometer. […] TFA has a FTIR band located at 1673 cm-1 and peptides with greater number of arginine and ornithine residues will contain more TFA and therefore a large TFA peak in the FTIR spectra. Transmission electron microscopy, TEM P11-9 and P11-9:GAG samples were prepared in DPBS (Dubeccos phosphate buffered saline, Sigma Aldrich), solution containing 0.04% NaN3, (Sodium azide, Sigma Aldrich, 99%)to prevent bacterial growth. The samples were vortexed for 20 seconds, and then sonicated for 30 minutes. Solution pH was measured and adjusted to 7.4 ± 0.3. Any adjustment of pH, if necessary, was made with μL volumes of 0.1 to 1 mol dm-3 HCL (Hydrochloric acid, Fisher Scientific, analytical reagent grade, 37% wt diluted with purified water), and/or 0.1 to 1 mol dm-3 NaOH (Sodium hydroxide pellets, Fisher […], analytical grade, dissolved in and diluted with purified water). Solution vials were closed, sealed with PTFE tape, and then warmed to approximately 80 °C to maximise peptide solubility. Following warming GAG powder was added to the peptide solutions and the mixture was vortexed to ensure complete mixing The resulting gels were left to equilibrate for approximately four and a half months. For P11-4, P11-8 and P11-12, samples with and without GAG prepared for FTIR were used, these were left to equillibriate for 4 days prior to TEM grid preparation. The gels were then diluted (20 μl of sample in 60 μl D2O) minutes prior to addition to the TEM grids. Glow discharged carbon film coated copper TEM grids (Agar Scientific) were touched onto the peptide and peptide:gag solutions for one minute. The grid was air-dried and then negatively stained with uranyl acetate solution (2% w/v) for 20 seconds and air-dried. TEM images for P11-4, P11-8 and P11-12, samples with and without GAG were obtained using a Jeol JEM1400 transmission electron microscope operating […] voltage. TEM images of […] with and without GAG were obtained using a Philips CM10 electron microscope operating at 80 kV accelerating voltage. Rheometry Peptide and peptide:GAG samples were prepared in DPBS (Dubeccos phosphate buffered saline, Sigma Aldrich), solution containing 0.04% NaN3 (sodium azide, Sigma Aldrich, 99%). The samples were vortexed for 20 seconds, and then sonicated for 30 minutes. Solution pH was measured and adjusted to 7.4 ± 0.3. Any adjustment of pH, if necessary, was made with μL volumes of 0.1 to 1 mol dm-3 HCL (hydrochloric acid, Fisher Scientific, analytical reagent grade, 37% wt diluted with purified water), and/or 0.1 to 1 mol dm-3 NaOH (Sodium hydroxide pellets, Fisher […], analytical grade, dissolved in and diluted with purified water). Solution vials were closed, sealed with PTFE tape, and then warmed to approximately 80 °C to maximise peptide solubility. Following warming GAG powder was added to the peptide solutions and the mixture was vortexed to ensure complete mixing The resulting gels were left to equilibrate at room temperature (P11-4 20 days, P11-8 1.5 months, P11-9 one month and P11-12 two months). Rheometry measurements used a Malvern Kinexus Pro rheometer with a cone-plate geometry (cone angle: 1O, diameter: 50 mm, gap: 0.033 mm). […]

[2] = Visually observed gelation time / physical state of peptide and peptide:GAG samples; settings: for Time to gel: peptide concentration = 20 mg/ml, typical gelation times
Protocol: Therefore the GAGs must be directly interacting with the peptides via physical bonds to enhance their gelation.
c.) 200 P11-12 1-9 days Wavenumbers (cm-1) Wavenumbers (cm-1) […]
Figure S1. […]
Peptide GAG ratio Time to gel ( peptide concentration = 20 mg/ml)
P11-4 1:2 Seconds-minutes
Table S1. Typical gelation times in 20mg/ml samples
(also on this page, place not known: (cm -1 ) (cm -1 ) (cm -1 ) Estimated monomer (µM) Aromatic 0 / µM Apparent critical relative integral 0.125 mM TMSP concentration to concentration Seconds-minutesP11-4 SecondsP11-8 SecondsP11-9 P11-12) […]
Figure S3. From left to right P11-12, P11-12:PEG (Mw 10k), P11-12:PEG (Mw 100k). 130 mM NaCl in D2O, PEG added at same wt% as 1:10
Pep:GAG ratio. All samples = liquid

[3] = 1H NMR of free peptide monomer concentration (apparent critical aggregation concentration c*, equilibration); settings: 1H NMR aromatic region integral relative to TMSP, 130 mM NaCl in D2O, pD 7.4, room temperature
Protocol: NMR characterisation of the free peptide monomer concentration that coexists in equilibrium with the peptide fibrils (and therefore the apparent c*) is found to decrease in the presence of GAG (Fig. 2a and Fig. S1a, ESI ^‡).
The thermodynamics are affected by the presence of GAG.
^1H Nuclear Magnetic Resonance spectra were recorded on a Bruker DPX300 300 MHz spectrometer. Transmission electron microscopy of uranyl acetate stained samples were carried out on a Philips CM10/Jeol JEM1400 electron microscope operating at 80/120 kV. Fourier transform infra-red spectra were acquired with a Thermo Scientific Nicolet 6700 FTIR spectrometer. Rheological measurements used a Malvern Kinexus Pro rheometer with a cone-plate geometry. […]
Peptide and peptide:GAG samples were prepared directly in D2O (Deuterium Oxide, Sigma Aldrich 99.9% D) containing 130 mM NaCl (Sodium Chloride, Fisher Scientific, analytical grade) and […] TMSP (deuterated Sodium 3-(trimethylsilyl)propionate-2,2,3,3-d4, Cambridge Isoptope Labortatories, chemical shift 0 ppm) an internal reference standard. […] Solution pD was measured and adjusted to 7.4 ± 0.3 using the relation pD = pH + 0.4.[1] […]
NMR data were acquired at room temperature with a Bruker DPX 300 spectrometer, operating at 300 MHz (5 mm probe, spectral width 5995 Hz). A presaturation program was used to minimize the water peak, and 1024 scans were measured per spectrum. […]

[4] = peptide alone or peptide:GAG 1:10
[5] = peptide alone or peptide:GAG 1:10, 20 mg/ml, 130 mM NaCl in D2O (P11-9 samples in DPBS)
[6] = Control (peptide only, no GAG), visually observed, room temperature
[7] = peptide : GAG ratio 1:2, visually observed, room temperature
[8] = peptide : GAG ratio 1:10, visually observed, room temperature

Morphology [1, 4] | Fibril width [1, 5] [nm] | Twist pitch ([1]; 20 mg/ml) [nm] | Time to gel [2, 6] | Time to gel [2, 7] | Time to gel [2, 8] | Ribbon width [1, 5] [nm] | Large loose bundle /fibre width [1, 5] [nm] | Physical state of sample (gel or liquid) ([2]; 130 mM NaCl in D2O, PEG added at same wt% as 1:10 Pep:GAG ratio) | Time to gel ([2]; peptide : GAG ratio 1:50, visually observed, room temperature) | Time to gel ([2]; peptide : GAG ratio 1:100, visually observed, room temperature) | Gelation time ([2]; when higher GAG ratios were used, visually observed, room temperature) | Time for the monomer concentration to equilibrate ([3]; GAG present at peptide : GAG ratio of 1 : 5) | Time for the monomer concentration to equilibrate ([3]; peptide only) | Substance
Twisted fibrils | 14.6 | 76.6 ± 17.1 | Minutes -hours | Seconds-minutes | Seconds |  |  |  |  |  |  |  |  | Ac-QQRFEWEFEQQ-NH2 [P11-4]
Ribbons |  |  | Minutes | Seconds | Seconds | 4 ± 1 |  |  |  |  |  |  |  | Ac-SSRFEWEFESS-NH2 [P11-9]
Twisted fibrils | 13.2 | 135.2 ± 22.1 | days | seconds | Seconds | 5.06 |  |  |  |  |  |  |  | CH3CO-Q-Q-R-F-O-W-O-F-E-Q-Q-NH2 [P11-8]
Twisted fibrils and ribbons | 10.1 | 114.3 ± 10.3 | Minutes | Seconds | Seconds | 5.0 ± 0.8 | 43.7 ± 11.5 | liquid | Spontaneous | Spontaneous | instantaneously | less than a week | within two months | CH3CO-S-S-R-F-O-W-O-F-E-S-S-NH2 [P11-12]
